Measured values reported in patent US8865724B2, “Preparation of 2-methyl-4-amino-5(substituted-1H-1,2,3-triazolyl)methylpyrimidine derivatives and microbicidal activity thereof” (Central China Normal University, priority 2011, dated 2014).
Read-outs that look alike come from different tables or passages of the source.

Legend:
wheat scab = test: microbe, parasite or virus in culture; assay type: cell-based, Gibberella zeae; settings: for inhibition of growth at 100 µg/g: 48 h, read-out: Wheat scab Average inhibition rate (%); for Wheat scab (inhibition): Table 7
gray mold of cucumber = test: Spawn growth rate on agar plates (Embodiment 9); assay type: cell-based, Botrytis cinerea; settings: 48 h; for inhibition of growth at 12.5 µg/g: Concentration 12.5 μg/g; for inhibition of growth at 25 µg/g: Concentration 25 μg/g; for inhibition of growth at 50 µg/g: Concentration 50 μg/g
[1] = test system: Cucumber Angular Leaf Spot; test: Microbicidal activity on cucumber seedlings, spray then inoculation (Embodiment 7); settings: for pest or weed control at 500 µg/g: Cucumis sativus, read-out: Cucumber bacterial spot (%), controlling effect
Procedure: Testing Materials: Strain: Cucumber Angular Leaf Spot
Testing method: a cucumber seedling at the stage of 2 seminal leaves was inoculated by spraying a suspension of Cucumber Angular Leaf Spot. Testing agents and control agents were sprayed uniformly on the seminal leaves at A.M. of a sunshine day respectively. After 2 hours, the leaves were inoculated with pathogenic microbes and cultured at humidity. After full occurrence of disease in control group, state of illness was examined according to grading standards, and the controlling effects were measured.

[2] = test system: Rice Sheath Blight Disease; test: Microbicidal activity, spray then strip inoculation (Embodiment 8); settings: Oryza sativa, read-out: Rice Sheath Blight Disease Average inhibition rate (%)
Procedure: (§1) (Pseudomonassyringaepv. tomato (Okabe) Young, Dye & Wilkie), Cucumber Angular Leaf Spot, Rice Sheath Blight Disease (Rhizoctonia solani), Corynespora Leaf Spot of Cucumber (Corynespora cassiicola), Downy Mildew of Cucumber (Cucumber Downy Mildew).
(§2) Testing agents and control agents were sprayed uniformly at A.M. of a sunshine day on the cucumber seminal leaves. After 2 hours, the leaves were inoculated with pathogenic microbes and cultured at humidity. […] Strip inoculation is used for Rice Sheath Blight Disease and phytophthora blight of pepper, in which the liquor was sprayed and after 2 hours, inoculation of strips was performed followed by culturing at humidity. After full occurrence of diseases in the control group, state of illness was examined according to grading standards, and a disease index and inhibition rate were calculated.

tobacco brown spot = test: microbe, parasite or virus in culture; assay type: cell-based, Alternaria alternate (Fries) Keissler; settings: 48 h, testing concentration of 100 μg/g; Table 4; read-out: Tobacco brown spot Average inhibition rate (%)
Downy Mildew of Cucumber = test: Microbicidal activity on cucumber seedlings, spray then spore inoculation (Embodiment 8); settings: Cucumis sativus, read-out: Downy Mildew of Cucumber Average inhibition rate (%)
[3] = test system: Cucumber Angular Leaf Spot; test: Microbicidal activity on cucumber seedlings, spray then inoculation (Embodiment 8); settings: for pest or weed control at 500 µg/g: Cucumis sativus, read-out: Cucumber Angular Leaf Spot Average inhibition rate (%)
Procedure: as §1, §2

[4] = test system: Corynespora Leaf Spot of Cucumber; test: Microbicidal activity on cucumber seedlings, spray then spore inoculation (Embodiment 8); settings: Corynespora, in Cucumis sativus, read-out: Corynespora Leaf Spot of Cucumber Average inhibition rate (%)
anthracnose of cucumber = test: Spawn growth rate on agar plates (Embodiment 9); assay type: cell-based, GloeosporiumorbiculareArs; settings: 48 h; testing concentration of 100 μg/g; Table 5
[5] = test system: Rice Sheath Blight Disease (sheath and culm blight of rice); test: Spawn growth rate on agar plates (Embodiment 9); assay type: cell-based, Rhizoctonia solani; settings: 48 h; for inhibition of growth at 12.5 µg/g: Concentration 12.5 μg/g; for inhibition of growth at 25 µg/g: Concentration 25 μg/g; for inhibition of growth at 50 µg/g: Concentration 50 μg/g
early blight of tomato = test: Spawn growth rate on agar plates (Embodiment 9); assay type: cell-based, Alternaria solania; settings: for inhibition of growth at 100 µg/g: 48 h, testing concentration of 100 μg/g, Table 6; for Early blight of tomato (inhibition): Table 7
[6] = testing concentration of 100 μg/g, Table 4, read-out: Gray mold of cucumber Average inhibition rate (%)
[7] = testing concentration of 100 μg/g, Table 6, read-out: Gray mold of cucumber Average inhibition rate (%)
[8] = testing concentration of 100 μg/g, Table 6, read-out: Sheath and culm blight of rice Average inhibition rate (%)

Cc1ncc(Cn2cc(COC(=O)c3ccc(Cl)cc3)nn2)c(N)n1 [Compound 33]
inhibition of growth at 100 µg/g (wheat scab): 55% | inhibition of growth at 100 µg/g (gray mold of cucumber; [6]): 61% | melting point: 188 to 189 °C | pest or weed control at 500 µg/g [1]: 60% | pest or weed control at 500 µg/g [2]: 55%

Cc1ncc(Cn2cc(COc3ccc(Cl)cc3Cl)nn2)c(N)n1 [Compound 10]
inhibition of growth at 100 µg/g (tobacco brown spot): 58% | inhibition of growth at 100 µg/g (gray mold of cucumber; [6]): 56% | melting point: 175 to 177 °C | pest or weed control at 500 µg/g (Downy Mildew of Cucumber): 50% | pest or weed control at 500 µg/g [2]: 70% | pest or weed control at 500 µg/g [3]: 60% | pest or weed control at 500 µg/g [4]: 70% | inhibition of growth at 100 µg/g (anthracnose of cucumber): 64%

Cc1ncc(Cn2cc(COC(=O)c3ccccc3F)nn2)c(N)n1 [Compound 37]
inhibition of growth at 100 µg/g (wheat scab): 51% | inhibition of growth at 100 µg/g (gray mold of cucumber; [6]): 98% | melting point: 124 to 125 °C | pest or weed control at 500 µg/g [1]: 70% | pest or weed control at 500 µg/g [2]: 50% | pest or weed control at 500 µg/g [3]: 37%

S=c1[nH]nc(NCNc2n[nH]c(=S)s2)s1 [Bismerthiazol, reference compound]
Cucumber bacterial spot (%), controlling effect ([1]; testing concentration of 500 μg/g, cucumber seedling): 73.14% | Cucumber Angular Leaf Spot Average inhibition rate (%) ([3]; testing concentration of 500 μg/g): 73%

Cc1ncc(Cn2cc(COC(=O)c3ccccc3Cl)nn2)c(N)n1 [Compound 36]
inhibition of growth at 100 µg/g (gray mold of cucumber; [6]): 61% | melting point: 85 to 87 °C | pest or weed control at 500 µg/g [1]: 60% | pest or weed control at 500 µg/g [2]: 45% | pest or weed control at 500 µg/g [3]: 60%

Cc1ncc(Cn2nnc(COc3ccc(C#N)cc3)c2I)c(N)n1 [Compound 31]
inhibition of growth at 100 µg/g (wheat scab): 58% | inhibition of growth at 12.5 µg/g (gray mold of cucumber; Table 8): 75% | inhibition of growth at 25 µg/g (gray mold of cucumber; Table 8): 87% | inhibition of growth at 50 µg/g (gray mold of cucumber; Table 8): 91% | inhibition of growth at 100 µg/g (gray mold of cucumber; [7]): 95% | melting point: 199 to 201 °C | inhibition of growth at 12.5 µg/g ([5]; Table 8): 78% | inhibition of growth at 25 µg/g ([5]; Table 8): 88% | inhibition of growth at 50 µg/g ([5]; Table 8): 96% | inhibition of growth at 100 µg/g [5, 8]: 97% | inhibition of growth at 100 µg/g (early blight of tomato): 70%

Cc1ncc(Cn2cc(COC(=O)c3ccc(F)cc3)nn2)c(N)n1 [Compound 34]
inhibition of growth at 100 µg/g (wheat scab): 51% | inhibition of growth at 100 µg/g (gray mold of cucumber; [6]): 63% | melting point: 198 to 199 °C | pest or weed control at 500 µg/g [1]: 60% | pest or weed control at 500 µg/g [2]: 40%

COc1ccc(OCc2nnn(Cc3cnc(C)nc3N)c2I)cc1 [Compound 26]
inhibition of growth at 100 µg/g (wheat scab): 55% | inhibition of growth at 12.5 µg/g (gray mold of cucumber; Table 8): 43% | inhibition of growth at 25 µg/g (gray mold of cucumber; Table 8): 55% | inhibition of growth at 50 µg/g (gray mold of cucumber; Table 8): 88% | inhibition of growth at 100 µg/g (gray mold of cucumber; [7]): 92% | melting point: 177 to 179 °C | inhibition of growth at 12.5 µg/g ([5]; Table 8): 58% | inhibition of growth at 25 µg/g ([5]; Table 8): 72% | inhibition of growth at 50 µg/g ([5]; Table 8): 94% | inhibition of growth at 100 µg/g [5, 8]: 99% | inhibition of growth at 100 µg/g (early blight of tomato): 69%

Cc1ncc(Cn2cc(COc3cccc(C)c3C)nn2)c(N)n1 [Compound 14]
inhibition of growth at 100 µg/g (tobacco brown spot): 60% | inhibition of growth at 100 µg/g (gray mold of cucumber; [6]): 54% | melting point: 202 to 204 °C | pest or weed control at 500 µg/g (Downy Mildew of Cucumber): 35% | pest or weed control at 500 µg/g [2]: 70% | pest or weed control at 500 µg/g [3]: 60% | pest or weed control at 500 µg/g [4]: 90%

Cc1ncc(Cn2nnc(COc3ccc(Cl)cc3)c2I)c(N)n1 [Compound 28]
inhibition of growth at 100 µg/g (wheat scab): 67% | Wheat scab (inhibition) (wheat scab; Concentration 25 μg/g): 43% | Wheat scab (inhibition) (wheat scab; Concentration 50 μg/g): 64% | Wheat scab (inhibition) (wheat scab; Concentration 100 μg/g): 69% | inhibition of growth at 12.5 µg/g (gray mold of cucumber; Table 8): 85% | inhibition of growth at 25 µg/g (gray mold of cucumber; Table 7): 42% | inhibition of growth at 25 µg/g (gray mold of cucumber; Table 8): 90% | inhibition of growth at 50 µg/g (gray mold of cucumber; Table 7): 86% | inhibition of growth at 50 µg/g (gray mold of cucumber; Table 8): 98% | inhibition of growth at 100 µg/g (gray mold of cucumber; Concentration 100 μg/g, Table 7, read-out: Gray mold of cucumber (inhibition)): 90% | inhibition of growth at 100 µg/g (gray mold of cucumber; [7]): 100% | melting point: 183 to 185 °C | inhibition of growth at 12.5 µg/g ([5]; Table 8): 87% | inhibition of growth at 25 µg/g ([5]; Table 7): 91% | inhibition of growth at 25 µg/g ([5]; Table 8): 96% | inhibition of growth at 50 µg/g ([5]; Table 7): 98% | inhibition of growth at 50 µg/g ([5]; Table 8): 98% | inhibition of growth at 100 µg/g ([5]; Concentration 100 μg/g, Table 7, read-out: Sheath and culm blight of rice (inhibition)): 99% | inhibition of growth at 100 µg/g [5, 8]: 100% | inhibition of growth at 100 µg/g (early blight of tomato): 69% | Early blight of tomato (inhibition) (early blight of tomato; Concentration 25 μg/g): 0% | Early blight of tomato (inhibition) (early blight of tomato; Concentration 50 μg/g): 28% | Early blight of tomato (inhibition) (early blight of tomato; Concentration 100 μg/g): 68%

Cc1ncc(Cn2cc(COc3ccc(C(=O)O)cc3)nn2)c(N)n1 [Compound 7]
inhibition of growth at 100 µg/g (tobacco brown spot): 57% | inhibition of growth at 100 µg/g (gray mold of cucumber; [6]): 67% | melting point: > 260 °C | pest or weed control at 500 µg/g (Downy Mildew of Cucumber): 40% | pest or weed control at 500 µg/g [2]: 70% | pest or weed control at 500 µg/g [3]: 55% | pest or weed control at 500 µg/g [4]: 70%
